Legend:
[1] = target: Hepatocyte growth factor receptor (Homo sapiens, UniProt P08581); assay: Inhibition of phosphorylation of c-Met in human MKN45 cells
[2] = target: T1, Macrophage-stimulating protein receptor (Homo sapiens, UniProt Q04912); assay: Inhibition of RON phosphorylation in human PC3 cells; assay type: cell-based, PC-3
[3] = target: T1, Macrophage-stimulating protein receptor; assay: Inhibition of RON phosphorylation in human HT29 cells; assay type: cell-based, HT-29
MDA-MB-231 = assay: Antiproliferative activity against human MDA-MB-231 cells by MTT assay; assay type: functional, cell-based
A549 = assay: Antiproliferative activity against human A549 cells by MTT assay; assay type: functional, cell-based
[4] = target: T1, Macrophage-stimulating protein receptor; assay: Inhibition of RON (unknown origin) kinase domain by enzymatic assay

T1 sequence (Q04912 25-304 limits assumed): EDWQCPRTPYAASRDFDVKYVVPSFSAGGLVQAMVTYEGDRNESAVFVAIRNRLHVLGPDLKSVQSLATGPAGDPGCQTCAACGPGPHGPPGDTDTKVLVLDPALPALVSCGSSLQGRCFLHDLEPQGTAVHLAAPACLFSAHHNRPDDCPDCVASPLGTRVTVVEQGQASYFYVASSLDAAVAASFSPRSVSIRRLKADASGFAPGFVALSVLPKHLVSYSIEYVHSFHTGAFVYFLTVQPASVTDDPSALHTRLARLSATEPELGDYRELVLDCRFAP
T1 sequence (Q04912 310-1400 limits assumed): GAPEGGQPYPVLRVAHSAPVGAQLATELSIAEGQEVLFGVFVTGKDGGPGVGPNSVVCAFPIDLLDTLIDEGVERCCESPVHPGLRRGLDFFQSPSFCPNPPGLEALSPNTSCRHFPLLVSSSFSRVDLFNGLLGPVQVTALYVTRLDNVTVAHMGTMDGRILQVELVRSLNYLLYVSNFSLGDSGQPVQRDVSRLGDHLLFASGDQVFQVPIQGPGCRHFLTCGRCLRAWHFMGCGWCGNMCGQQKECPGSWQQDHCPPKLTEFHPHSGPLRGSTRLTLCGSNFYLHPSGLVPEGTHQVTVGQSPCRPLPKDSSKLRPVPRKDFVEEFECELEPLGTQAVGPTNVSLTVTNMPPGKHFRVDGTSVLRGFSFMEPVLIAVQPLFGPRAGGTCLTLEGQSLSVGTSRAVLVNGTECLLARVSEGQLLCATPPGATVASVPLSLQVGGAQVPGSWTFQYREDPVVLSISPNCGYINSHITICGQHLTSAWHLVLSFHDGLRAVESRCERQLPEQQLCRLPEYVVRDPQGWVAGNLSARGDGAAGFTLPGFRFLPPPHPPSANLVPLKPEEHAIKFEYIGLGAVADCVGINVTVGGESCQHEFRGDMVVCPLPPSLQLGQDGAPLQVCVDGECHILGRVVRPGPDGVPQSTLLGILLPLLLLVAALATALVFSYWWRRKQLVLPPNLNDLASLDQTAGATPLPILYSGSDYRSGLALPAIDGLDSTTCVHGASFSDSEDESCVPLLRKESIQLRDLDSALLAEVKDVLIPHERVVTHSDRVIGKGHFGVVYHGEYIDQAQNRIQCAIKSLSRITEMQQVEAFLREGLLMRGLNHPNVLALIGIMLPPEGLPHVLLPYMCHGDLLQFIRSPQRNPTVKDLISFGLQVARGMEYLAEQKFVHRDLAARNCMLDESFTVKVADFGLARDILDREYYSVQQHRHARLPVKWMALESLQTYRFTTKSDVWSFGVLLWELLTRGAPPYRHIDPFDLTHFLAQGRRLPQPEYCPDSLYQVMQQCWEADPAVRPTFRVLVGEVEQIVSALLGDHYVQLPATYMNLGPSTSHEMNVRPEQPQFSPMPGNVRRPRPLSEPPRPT
Sequence of Hepatocyte growth factor receptor (P08581 whole entry): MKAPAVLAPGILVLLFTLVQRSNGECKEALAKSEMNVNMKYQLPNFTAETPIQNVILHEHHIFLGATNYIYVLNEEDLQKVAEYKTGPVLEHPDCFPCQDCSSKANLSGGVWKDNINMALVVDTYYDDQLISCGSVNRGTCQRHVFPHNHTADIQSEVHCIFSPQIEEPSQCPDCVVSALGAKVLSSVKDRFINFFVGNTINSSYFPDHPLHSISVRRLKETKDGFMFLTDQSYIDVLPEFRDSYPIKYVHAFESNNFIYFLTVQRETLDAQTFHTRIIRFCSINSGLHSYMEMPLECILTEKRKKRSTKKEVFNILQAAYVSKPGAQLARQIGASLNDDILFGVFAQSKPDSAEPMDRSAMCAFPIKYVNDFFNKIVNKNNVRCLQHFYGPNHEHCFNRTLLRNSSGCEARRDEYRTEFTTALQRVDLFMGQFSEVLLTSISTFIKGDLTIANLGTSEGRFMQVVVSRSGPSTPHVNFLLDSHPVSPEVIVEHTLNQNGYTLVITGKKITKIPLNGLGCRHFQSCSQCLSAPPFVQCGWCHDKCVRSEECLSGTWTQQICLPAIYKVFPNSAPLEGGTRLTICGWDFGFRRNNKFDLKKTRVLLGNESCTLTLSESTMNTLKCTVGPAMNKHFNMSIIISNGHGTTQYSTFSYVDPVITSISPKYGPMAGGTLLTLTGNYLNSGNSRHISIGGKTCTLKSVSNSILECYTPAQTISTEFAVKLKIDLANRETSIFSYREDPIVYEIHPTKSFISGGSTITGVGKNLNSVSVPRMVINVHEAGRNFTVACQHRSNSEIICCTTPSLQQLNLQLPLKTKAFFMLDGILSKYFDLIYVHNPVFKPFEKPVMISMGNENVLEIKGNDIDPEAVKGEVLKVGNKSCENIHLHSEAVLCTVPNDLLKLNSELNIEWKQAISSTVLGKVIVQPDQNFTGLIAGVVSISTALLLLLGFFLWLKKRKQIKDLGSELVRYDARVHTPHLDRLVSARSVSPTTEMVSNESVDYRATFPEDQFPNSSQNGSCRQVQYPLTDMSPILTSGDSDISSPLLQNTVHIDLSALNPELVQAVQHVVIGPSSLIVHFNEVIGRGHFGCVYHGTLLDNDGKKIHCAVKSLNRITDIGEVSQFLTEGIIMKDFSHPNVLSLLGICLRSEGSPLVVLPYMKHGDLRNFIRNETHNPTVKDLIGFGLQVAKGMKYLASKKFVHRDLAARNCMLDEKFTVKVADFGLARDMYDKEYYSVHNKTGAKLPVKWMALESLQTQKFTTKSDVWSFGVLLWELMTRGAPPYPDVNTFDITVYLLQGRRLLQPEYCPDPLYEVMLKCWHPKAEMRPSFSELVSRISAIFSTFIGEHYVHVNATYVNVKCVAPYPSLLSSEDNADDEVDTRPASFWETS

Cn1cnc(-c2cc3nccc(Oc4ccc(NC(=O)c5cnn(-c6ccccc6)c5C(F)(F)F)cc4F)c3s2)c1
IC50 [1]: 6870 nM
IC50 [2]: 30 nM
IC50 [3]: 30 nM
IC50 (MDA-MB-231): 100 nM
IC50 (A549): 100 nM
IC50 [4]: 12 nM

Cn1cnc(-c2cc3nccc(Oc4ccc(NC(=O)c5ccn(-c6ccccc6)c5C(F)(F)F)cc4F)c3s2)c1
IC50 ([1]; mkn-45): Not Active

Reference: ChEMBL document CHEMBL3580568, “Design and synthesis of close analogs of LCRF-0004, a potent and selective RON receptor tyrosine kinase inhibitor” (Bioorg Med Chem Lett, 2015)
